Measurements reported in patent US10865216B2, “Tricyclic Gyrase inhibitors” (MERCK SHARP & DOHME CORP., priority 2012, dated 2020).
Values after ≈ are worked out from the molar mass of the structure shown.

Experiments:
S. aureus ATCC 13709 = test: MIC, S. aureus ATCC 13709; assay type: cell-based; details: Table 18, Sa
E. coli ATCC 25922 = test: MIC, E. coli ATCC 25922; assay type: cell-based; details: Table 18, Ec

SMILES | MIC Sa (S. aureus ATCC 13709) | MIC Ec (E. coli ATCC 25922)
CNc1cc(F)cc2c1[nH]c1nc(NCc3cccnc3)nc(N3C[C@H]4C[C@@H]3C[C@H]4N)c12 [Compound 10.51] | 4 µg/mL (≈ 9.25 µM) | 16 µg/mL (≈ 37 µM)
CNc1cc(F)cc2c1[nH]c1nc(Oc3ccc4ccnn4c3)nc(N3C[C@H]4CCN[C@H]4C3)c12 [Compound 10.52] | ≤ 0.5 µg/mL | ≤ 0.5 µg/mL
CNc1cc(F)cc2c1[nH]c1nc(Oc3ccc4ccnn4c3)nc(N3C[C@H]4C[C@@H](N)[C@H]4C3)c12 [Compound 10.53] | ≤ 0.5 µg/mL | ≤ 0.5 µg/mL
CNc1cc(F)cc2c1[nH]c1nc(Oc3cnc(C)nc3)nc(N3CCOCC3)c12 [Compound 10.54] | ≤ 0.5 µg/mL | ≤ 0.5 µg/mL
CNc1cc(F)cc2c1[nH]c1nc(Oc3cnc4c(C(C)O)cnn4c3)nc(N3C[C@H]4C[C@@H]3C[C@H]4N)c12 (some centres unmarked) [Compound 10.55] | ≤ 0.5 µg/mL | 1 µg/mL (≈ 1.99 µM)
CNc1cc(F)cc2c1[nH]c1nc(Oc3cnc4ccnn4c3)nc(N3CC4(CCC4N)C3)c12 (centres unmarked) [Compound 10.56] | ≤ 0.5 µg/mL | ≤ 0.5 µg/mL
CNc1cc(F)cc2c1[nH]c1nc(Oc3ccc4ccnn4c3)nc(N3CC4(CCC4N)C3)c12 (centres unmarked) [Compound 10.57] | ≤ 0.5 µg/mL | ≤ 0.5 µg/mL
CNc1cc(F)cc2c1[nH]c1nc(Oc3cnc([C@@H](C)O)nc3)nc(N3CC4(CC[C@H]4N)C3)c12 [Compound 10.59] | ≤ 0.5 µg/mL | ≤ 0.5 µg/mL
CNc1cc(F)cc2c1[nH]c1nc(NCc3cnc(C)nc3)nc(N3C[C@H]4C[C@@H]3C[C@H]4N)c12 [Compound 10.60] | 8 µg/mL (≈ 17.9 µM) | 16 µg/mL (≈ 35.8 µM)
CNc1cc(F)cc2c1[nH]c1nc(Oc3cnc(C)nc3)nc(N3CC4(CC/C4=N\O)C3)c12 [Compound 10.61] | 0.03 µg/mL (≈ 0.0669 µM) | 2 µg/mL (≈ 4.46 µM)
CNc1cc(F)cc2c1[nH]c1nc(Oc3cnn4ccnc4c3)nc(N3C[C@H]4C[C@@H]3C[C@H]4N)c12 [Compound 10.62] | ≤ 0.5 µg/mL | ≤ 0.5 µg/mL
CNc1cc(F)cc2c1[nH]c1nc(Oc3cnc(C(C)O)nc3)nc(N3C[C@@H]4[C@H](N)C(F)[C@@H]4C3)c12 (some centres unmarked) [Compound 10.63] | ≤ 0.5 µg/mL | ≤ 0.5 µg/mL
CNc1cc(F)c(Cl)c2c1[nH]c1nc(Oc3cnc(C)nc3)nc(N3C[C@H]4CCN[C@H]4C3)c12 [Compound 10.64] | ≤ 0.5 µg/mL | ≤ 0.5 µg/mL
CNc1cc(F)cc2c1[nH]c1nc(Oc3cnc(C)nc3)nc(N3CC4CCC4(N)C3)c12 (centres unmarked) [Compound 10.65] | ≤ 0.5 µg/mL | ≤ 0.5 µg/mL
CNc1cc(F)c(Cl)c2c1[nH]c1nc(Oc3cnc(C)nc3)nc(N3CC4(CC[C@H]4N)C3)c12 [Compound 10.66] | ≤ 0.5 µg/mL | ≤ 0.5 µg/mL
CNc1cc(F)c(Br)c2c1[nH]c1nc(Oc3cnc(C)nc3)nc(N3C[C@H]4C[C@@H]3C[C@H]4N)c12 [Compound 10.68] | ≤ 0.5 µg/mL | ≤ 0.5 µg/mL
CNc1cc(F)c(C#N)c2c1[nH]c1nc(Oc3cnc(C)nc3)nc(N3C[C@H]4C[C@@H]3C[C@H]4N)c12 [Compound 10.69] | ≤ 0.5 µg/mL | ≤ 0.5 µg/mL
CNc1cc(F)c(C#N)c2c1[nH]c1nc(Oc3cnc(C)nc3)nc(N3C[C@H]4CCN[C@H]4C3)c12 [Compound 10.70] | ≤ 0.5 µg/mL | ≤ 0.5 µg/mL
CNc1cc(F)c(C#N)c2c1[nH]c1nc(Oc3cnc(C)nc3)nc(N3CC4(CC[C@H]4N)C3)c12 [Compound 10.71] | ≤ 0.5 µg/mL | ≤ 0.5 µg/mL
CNc1cc(F)cc2c1[nH]c1nc(Oc3cnc4c(c3)C(=O)OC4(C)C)nc(N3C[C@H]4C[C@@H]3C[C@H]4N)c12 [Compound 10.72] | ≤ 0.5 µg/mL | ≤ 0.5 µg/mL
CNc1cc(F)cc2c1[nH]c1nc(Oc3cnc4c(c3)C(=O)OC4(C)C)nc(N3CC4C[C@@H](N)C4C3)c12 (some centres unmarked) [Compound 10.73] | ≤ 0.5 µg/mL | ≤ 0.5 µg/mL
CNc1cc(F)cc2c1[nH]c1nc(Oc3cnc(C(C)O)nc3)nc(N3CC4(CC[C@]4(C)N)C3)c12 (some centres unmarked) [Compound 10.74] | ≤ 0.5 µg/mL | 1 µg/mL (≈ 2.09 µM)
CNc1cc(F)cc2c1[nH]c1nc(Oc3cnc(C)nc3)nc(N3CCC(N)(CCC#N)C3)c12 (centres unmarked) [Compound 10.75] | ≤ 0.5 µg/mL | 1 µg/mL (≈ 2.17 µM)
CNc1cc(F)cc2c1[nH]c1nc(Oc3ccc([C@@H](C)O)nc3)nc(N3CC4[C@H](N)CC4(C)C3)c12 (some centres unmarked) [Compound 10.76] | ≤ 0.5 µg/mL | ≤ 0.5 µg/mL
CNc1cc(F)cc2c1[nH]c1nc(Oc3cnc(C(C)O)nc3)nc(N3C[C@H]4C[C@@H]3[C@H](C)[C@H]4N)c12 (some centres unmarked) [Compound 10.78] | 1 µg/mL (≈ 2.09 µM) | 4 µg/mL (≈ 8.36 µM)

SMILES | MIC Sa (S. aureus ATCC 13709) | MIC Ec (E. coli ATCC 25922)
CNc1cc(F)cc2c1[nH]c1nc(Oc3ccc(C)nc3)nc(N3CC4CC(C)NC4C3)c12 (centres unmarked) [Compound 10.79] | ≤ 0.5 µg/mL | ≤ 0.5 µg/mL
CNc1cc(F)cc2c1[nH]c1nc(Oc3cnc(C)nc3)nc(N3CCC4(CC3)CC4CN)c12 (centres unmarked) [Compound 10.80] | 0.06 µg/mL (≈ 0.13 µM) | 2 µg/mL (≈ 4.32 µM)
CNc1cc(F)c(F)c2c1[nH]c1nc(Oc3cnc(C(C)O)nc3)nc(N3CC4(CC[C@]4(C)N)C3)c12 (some centres unmarked) [Compound 10.81] | ≤ 0.5 µg/mL | 0.5 µg/mL (≈ 1.01 µM)
CNc1cc(F)cc2c1[nH]c1nc(Oc3cnc(C(C)O)nc3)nc(N3CC4CC(C3)C4N)c12 (centres unmarked) [Compound 10.82] | 0.13 µg/mL (≈ 0.28 µM) | 0.5 µg/mL (≈ 1.08 µM)
CNc1cc(F)cc2c1[nH]c1nc(Oc3cnc4c(c3)C(=O)N(C)C4C)nc(N3CC4(CC[C@H]4N)C3)c12 (some centres unmarked) [Compound 10.83] | ≤ 0.5 µg/mL | 1 µg/mL (≈ 1.99 µM)
C=Cc1cc(F)cc2c1[nH]c1nc(Oc3cnc(C)nc3)nc(N3C[C@H]4C[C@@H]3C[C@H]4N)c12 [Compound 10.84] | ≤ 0.5 µg/mL | ≤ 0.5 µg/mL
CNc1cc(F)c(Cl)c2c1[nH]c1nc(Oc3cnc4ccnn4c3)nc(N3C[C@H]4C[C@@H]3C[C@H]4N)c12 [Compound 10.85] | ≤ 0.5 µg/mL | ≤ 0.5 µg/mL
CNc1cc(F)c(Cl)c2c1[nH]c1nc(Oc3cnc4ccnn4c3)nc(N3C[C@H]4C[C@@H](N)[C@H]4C3)c12 [Compound 10.86] | ≤ 0.5 µg/mL | 0.25 µg/mL (≈ 0.506 µM)
CNc1cc(F)c(Cl)c2c1[nH]c1nc(Oc3cnc([C@@H](C)O)nc3)nc(N3C[C@H]4C[C@@H]3C[C@H]4N)c12 [Compound 10.87] | ≤ 0.5 µg/mL | ≤ 0.5 µg/mL
CNc1cc(F)c(Cl)c2c1[nH]c1nc(Oc3cnc([C@@H](C)O)nc3)nc(N3CC4(CC[C@@H]4N)C3)c12 [Compound 10.88] | ≤ 0.5 µg/mL | ≤ 0.5 µg/mL
CCc1cc(F)cc2c1[nH]c1nc(Oc3cnc(C)nc3)nc(N3C[C@H]4C[C@@H]3C[C@H]4N)c12 [Compound 10.89] | ≤ 0.5 µg/mL | 2 µg/mL (≈ 4.61 µM)
CNc1cc(F)c(Cl)c2c1[nH]c1nc(Oc3cnc4ccnn4c3)nc(N3CC4(CC[C@]4(C)N)C3)c12 [Compound 10.90] | ≤ 0.5 µg/mL | ≤ 0.5 µg/mL
CNc1cc(F)cc2c1[nH]c1nc(Oc3cnc(C(C)C#N)nc3)nc(N3C[C@H]4C[C@@H]3C[C@H]4N)c12 (some centres unmarked) [Compound 10.91] | 4 µg/mL (≈ 8.45 µM) | > 16 µg/mL
CNc1cc(F)c(F)c2c1[nH]c1nc(Oc3cnc(C)nc3)nc(N3CC[C@]4(CC[C@H]4N)C3)c12 [Compound 10.92] | ≤ 0.5 µg/mL | ≤ 0.5 µg/mL
CNc1cc(F)c(F)c2c1[nH]c1nc(Oc3cnc([C@H](C)O)nc3)nc(N3CC[C@]4(CC[C@H]4N)C3)c12 [Compound 10.93] | ≤ 0.5 µg/mL | ≤ 0.5 µg/mL
CNc1cc(F)c(Cl)c2c1[nH]c1nc(Oc3cnc4ccnn4c3)nc(N3CC4(CC[C@@H]4N)C3)c12 [Compound 10.94] | ≤ 0.5 µg/mL | ≤ 0.5 µg/mL
CNc1cc(F)c(F)c2c1[nH]c1nc(Oc3cnc(C(C)C#N)nc3)nc(N3C[C@H]4C[C@@H]3C[C@H]4N)c12 (some centres unmarked) [Compound 10.95] | ≤ 0.5 µg/mL | ≤ 0.5 µg/mL
CNc1cc(F)cc2c1[nH]c1nc(Oc3ccc4cncnc4c3)nc(N3C[C@H]4C[C@@H]3C[C@H]4N)c12 [Compound 10.96] | ≤ 0.5 µg/mL | ≤ 0.5 µg/mL
CNc1cc(F)cc2c1[nH]c1nc(Oc3ccc4cncnc4c3)nc(N3C[C@H]4C[C@@H]3C[C@H]4N)c12 [Compound 10.97] | ≤ 0.5 µg/mL | 2 µg/mL (≈ 4.25 µM)
CNc1cc(F)cc2c1[nH]c1nc(Oc3cnc(N(C)N)nc3)nc(N3C[C@H]4C[C@@H]3C[C@H]4N)c12 [Compound 10.98] | ≤ 0.5 µg/mL | ≤ 0.5 µg/mL
CNc1cc(F)cc2c1[nH]c1nc(Oc3cnc(C)nc3)nc(N3CC4CC(OS(N)(=O)=O)C4C3)c12 (centres unmarked) [Compound 10.99] | ≤ 0.5 µg/mL | ≤ 0.5 µg/mL
CNc1cc(F)cc2c1[nH]c1nc(Oc3cnc(C(C)O)nc3)nc(N(C)C)c12 (centres unmarked) [Compound 10.101] | ≤ 0.5 µg/mL | ≤ 0.5 µg/mL
CNc1ncc(Oc2nc(N3CCC4(CC[C@H]4N)C3)c3c(n2)[nH]c2c(NC)cc(F)cc23)cn1 (some centres unmarked) [Compound 10.102] | ≤ 0.5 µg/mL | ≤ 0.5 µg/mL
CNc1cc(F)c(F)c2c1[nH]c1nc(Oc3cnc(C(C)O)nc3)nc(N3CC4(CCCC4N)C3)c12 (centres unmarked) [Compound 10.103] | ≤ 0.5 µg/mL | ≤ 0.5 µg/mL
